The target in data set [1] is T1, PXR (NR1I2) (Homo sapiens, UniProt O75469).
T1 sequence (O75469 1-434): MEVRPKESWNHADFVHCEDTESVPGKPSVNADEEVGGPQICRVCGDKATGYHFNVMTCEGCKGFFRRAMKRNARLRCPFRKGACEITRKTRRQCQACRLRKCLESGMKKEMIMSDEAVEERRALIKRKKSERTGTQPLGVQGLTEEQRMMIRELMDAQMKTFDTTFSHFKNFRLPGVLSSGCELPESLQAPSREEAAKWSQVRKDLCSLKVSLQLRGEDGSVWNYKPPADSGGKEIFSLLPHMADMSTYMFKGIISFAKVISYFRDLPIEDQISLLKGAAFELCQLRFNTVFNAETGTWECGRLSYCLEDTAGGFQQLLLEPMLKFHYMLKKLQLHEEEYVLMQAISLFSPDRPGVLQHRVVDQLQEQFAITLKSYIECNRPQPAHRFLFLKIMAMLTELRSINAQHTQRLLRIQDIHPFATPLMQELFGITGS
Nature of the data set: ATG_PXRE_CIS: Factorial reporter gene assay (HepG2). In kind it is cell-based. The arrangement: endogenous in cells; host or cells: HepG2. Here is the method:
(§1) A multiple reporter transcription unit (MRTU) library consisting of 48 transcription factor binding sites was transfected into the HepG2 human liver hepatoma cell line. In addition to the cis-acting reporter genes (CIS), a modification of the approach was used to generate a trans-system (TRANS) with a mammalian one-hybrid assay consisting of an additional 25 MRTU library reporting the activity of nuclear receptor super-family members. […] These assays were performed by Attagene Inc. (Morrisville NC) under contract to EPA.
(§2) In addition to the cis-acting reporter genes (CIS), a modification of the approach was used to generate a trans-system (TRANS) with a mammalian one-hybrid assay consisting of an additional 25 MRTU library reporting the activity of nuclear receptor super-family members. […] Chemicals were then tested in the CIS and TRANS assays at seven concentrations starting at the MTC and followed by three-fold serial dilutions. These assays were performed by Attagene Inc. (Morrisville NC) under contract to EPA. Detailed description of the methods, data and analysis methods for this dataset will be presented in a separate publication.
A general note: In a reporter assay the amount or activity of a reporter protein is the signal.

In data set [2] the test system is CYP2B6. Briefly: CLZD_CYP2B6: Change in expression of CYP2B6 (primary human hepatocytes). In kind it is cell-based. To be noted: 24 hr. The procedure: (§3) This is a collection of multiplexed gene expression assays focused on Phase I and II xenobiotic metabolizing enzymes and transporters. Human primary cell cultures were treated with chemicals at 5 concentrations (0.004-40 [drawing 42] M) for 6, 24 and 48 hr. Concentration- and time-response profiles of chemicals were measured by the expression of key nuclear receptor target genes, activities of CYP1A enzymes (EROD), and cell morphology. Fourteen gene targets were monitored by quantitative nuclease protection assay including: six representative cytochrome P-450 genes, four hepatic transporters, three Phase II conjugating enzymes, and one endogenous metabolism gene involved in cholesterol synthesis. The target genes associated with nuclear receptor pathways are as follows: [drawing 43] and [drawing 44] with [drawing 45]; [drawing 46] , [drawing 47] , [drawing 48] , [drawing 49] , [drawing 50] and [drawing 51] with [drawing 52]; [drawing 53] , [drawing 54] , [drawing 55] and [drawing 56] with [drawing 57]; [drawing 58] with [drawing 59]; and [drawing 60] with [drawing 61] . Assays were run in primary human hepatocyte cultures by CellzDirect Invitrogen Inc. (Durham, NC), in collaboration with EPA.
(§4) Multiplexed Gene Expression in Human Primary Hepatocytes: This is a collection of multiplexed gene expression assays focused on Phase I and II metabolic enzymes and transporters. […] Fourteen gene targets were monitored by quantitative nuclease protection assay: six representative cytochrome P450 genes, four hepatic transporters, three Phase II conjugating enzymes, and one endogenous metabolism gene involved in cholesterol synthesis. Cells were exposed at 5 concentrations (0.004-40 µM) for 6, 24 or 48 hr. Gene targets are sentinels for five nuclear receptor signaling pathways: AhR, CAR, PXR, FXR, and PPARα. All gene are associated with nuclear receptor pathways: CYP1A1 and CYP1A2 with AHR; ABCB1, ABCG2, CYP2B6, CYP2C9, CYP2C19 and UGT1A1 with CAR; CYP3A4, GSTA2, SLCO1B1 and SULT2A1 with PXR; HMGCS2 with PPARA; and ABCB11 with FXR. […] Detailed description of the methods, data and analysis methods for this dataset will be presented in a separate publication.

For data set [3], the system named is Rat Liver. To be noted: ref ToxRefDB, cited from earlier work.
Data set [4] relates to CYP1A1. Briefly: CLZD_CYP1A1: Change in expression of CYP1A1 (primary human hepatocytes). To be noted: 24 hr. In kind it is cell-based. Here is the method:
as §3, §4

The test system of data set [5] is Rat Liver. To be noted: ref ToxRefDB, cited from earlier work. The source holds these as a separate data set.
For data set [6], the system named is Mouse Liver. Particulars: chronic study, ref ToxRefDB, cited from earlier work.
Data set [7] relates to CYP3A4. Briefly: CLZD_CYP3A4: Change in expression of CYP3A4 (primary human hepatocytes). In kind it is cell-based. To be noted: 24 hr. The procedure:
as §3, §4

Data set [8] relates to Rat Liver. To be noted: ref ToxRefDB, cited from earlier work. This is another data set of the same source.
Data set [9] concerns the target T1, PXR (NR1I2). Nature of the data set: ATG_PXR_TRANS: Factorial reporter gene assay (HepG2). In kind it is cell-based. Set-up: endogenous in cells; host or cells: HepG2. The procedure:
as §1, §2

Data set [10] has as its target T2, PPARG (peroxisome proliferator-activated receptor gamma) (Homo sapiens, UniProt P37231).
T2 construct: expressed in transfected cells; host or cells: HepG2
T2 sequence (P37231 1-505): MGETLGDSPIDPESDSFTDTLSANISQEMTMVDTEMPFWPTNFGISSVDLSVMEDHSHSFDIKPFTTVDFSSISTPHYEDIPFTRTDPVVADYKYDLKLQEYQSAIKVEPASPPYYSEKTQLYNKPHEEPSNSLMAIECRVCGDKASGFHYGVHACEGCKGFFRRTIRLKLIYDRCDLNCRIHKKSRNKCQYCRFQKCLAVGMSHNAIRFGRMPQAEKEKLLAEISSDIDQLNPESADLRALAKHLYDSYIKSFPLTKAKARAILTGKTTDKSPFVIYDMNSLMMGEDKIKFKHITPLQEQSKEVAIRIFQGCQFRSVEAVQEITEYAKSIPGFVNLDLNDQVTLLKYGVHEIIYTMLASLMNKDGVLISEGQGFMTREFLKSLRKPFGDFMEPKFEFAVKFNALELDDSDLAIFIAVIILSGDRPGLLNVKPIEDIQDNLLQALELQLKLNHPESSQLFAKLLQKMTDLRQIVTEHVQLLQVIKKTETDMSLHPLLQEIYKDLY
Nature of the data set: ATG_PPARg_TRANS: Factorial reporter gene assay (HepG2). Type of data set: cell-based. The procedure: as §1, §2

Data set [11] deals with CYP1A2. Nature of the data set: CLZD_CYP1A2: Change in expression of CYP1A2 (primary human hepatocytes). In kind it is cell-based. To be noted: 24 hr. The procedure: as §3, §4
The target of data set [12] is T1, PXR (NR1I2). Briefly: NVS_NR_hPXR: Human PXR Fluormone PXR (SXR) green (cell-free HTS). In kind it is binding. An excerpt:
These are a collection of biochemical assays measuring binding constants and enzyme inhibition values. Chemicals were initially screened at a single concentration in duplicate wells at a concentration of 10 [drawing 63] M for cytochrome P-450 assays and 25 [drawing 64] M for all others. […] These assays were run by Caliper Life Sciences (Hanover, MD) under contract to EPA. Short assay descriptions are available at: http://www.caliperls.com/products/contract-research/in-vitro/.
Cell-free HTS Assays: A collection of biochemical assays measuring binding constants and enzyme inhibition values. […] These assays were run by Caliper Life Sciences (Hanover, MD) under contract to EPA. Short assay descriptions are available at http://www.caliperls.com/products/contract-research/in-vitro/. Values for all endpoints were imported into GeneData Screener (Basel, Switzerland) and normalised to solvent controls from the same plate as the tested compounds and expressed as percent of neutral control. Concentration-response curves were fit in GeneData Screener (Basel, Switzerland) Condeseo module using the Hill equation and AC50 values were determined. […] Detailed description of the methods, data and analysis methods for this dataset are described in a separate publication.

Where two headings read alike, the source gives them in different places.

`COc1nc(NC(C)C)nc(NC(C)C)n1` [r255] registered an ATG_PXRE_CIS in [1] (HepG2) of 4.553. In data set [2], this compound yielded a CLZD_CYP2B6_24 of 4.907. Besides, the CHR_Rat_Liver_3_NeoplasticLesion in data set [3] (rat, chronic study) was 0. This compound yielded a CLZD_CYP1A1_24 in data set [4] of 5.078. Moreover, the CHR_Rat_Liver_2_PreneoplasticLesion in data set [5] (rat, chronic study) is recorded as 0. In addition, the CHR_Mouse_Liver_1_AnyLesion in data set [6] (mouse) is on record as 6. In data set [7], this compound had a CLZD_CYP3A4_24 of 5.515. Besides, the CHR_Rat_Liver_1_AnyLesion in data set [8] (rat, chronic study) was 0.
`CC(C)Nc1nc(Cl)nc(NC(C)C)n1` [r260] showed an ATG_PXR_TRANS in data set [9] (HepG2) of 4.469. This compound also had an ATG_PXRE_CIS in data set [1] (HepG2) of 4.569. Also, the CLZD_CYP2B6_24 in [2] stood at 5.165. In data set [3] (rat, chronic study), the CHR_Rat_Liver_3_NeoplasticLesion is reported as 0. This compound also returned a CLZD_CYP1A1_24 in [4] of 4.988. This compound gave an ATG_PPARg_TRANS in data set [10] (HepG2) of 4.481. The CHR_Rat_Liver_2_PreneoplasticLesion in [5] (rat, chronic study) is given as 0. Also, the CLZD_CYP1A2_24 in data set [11] is reported as 5.254. The CHR_Mouse_Liver_1_AnyLesion in [6] (mouse) was 6. Moreover, in data set [7], the CLZD_CYP3A4_24 is listed as 5.248. The CHR_Rat_Liver_1_AnyLesion in [8] (rat, chronic study) is given as 0.
`COc1nc(C)nc(NC(=O)NS(=O)(=O)c2ccccc2CCC(F)(F)F)n1` [r267] came in with an ATG_PXRE_CIS in data set [1] (HepG2 reporter) of 4.328. This compound also registered a CLZD_CYP2B6_24 in [2] of 5.398. In addition, in data set [3] (chronic study, rat liver), the CHR_Rat_Liver_3_NeoplasticLesion was 0. For the same compound, the NVS_NR_hPXR in data set [12] amounted to 4.423. Further, in [4], the CLZD_CYP1A1_24 is on record as 5.399. Moreover, the CHR_Rat_Liver_2_PreneoplasticLesion in [5] (chronic study, rat liver) is 0. The CHR_Mouse_Liver_1_AnyLesion in [6] (mouse liver) is given as 6. The compound further yielded a CLZD_CYP3A4_24 in data set [7] of 5.396. Further, the CHR_Rat_Liver_1_AnyLesion in [8] (chronic study, rat liver) was 0.
Compound `CCNc1nc(Cl)nc(NCC)n1` [r284] showed an ATG_PXRE_CIS in data set [1] (HepG2 reporter) of 4.456. Further, the CLZD_CYP2B6_24 in data set [2] is given as 4.983. The CHR_Rat_Liver_3_NeoplasticLesion in data set [3] (chronic study, rat liver) is reported as 6. The compound further registered a CLZD_CYP1A1_24 in [4] of 5.018. In data set [10] (HepG2 reporter), this compound yielded an ATG_PPARg_TRANS of 4.398. Moreover, the CHR_Rat_Liver_2_PreneoplasticLesion in data set [5] (chronic study, rat liver) is 6. In addition, the CLZD_CYP1A2_24 in data set [11] turned out to be 5.016. In addition, the CHR_Rat_Liver_1_AnyLesion in data set [8] (chronic study, rat liver) is on record as 6.
Consider `Cc1nn(-c2cc(NS(C)(=O)=O)c(Cl)cc2Cl)c(=O)n1C(F)F` [r287], for which, in data set [9] (HepG2 reporter), the ATG_PXR_TRANS was 4.469. Also, in data set [1] (HepG2 reporter), the ATG_PXRE_CIS is reported as 4.409. The same compound yielded a CLZD_CYP2B6_24 in data set [2] of 5.329. For the same compound, the CHR_Rat_Liver_3_NeoplasticLesion in [3] (chronic study, rat liver) is 0. This compound also yielded an ATG_PPARg_TRANS in data set [10] (HepG2 reporter) of 4.444. In addition, in data set [5] (chronic study, rat liver), the CHR_Rat_Liver_2_PreneoplasticLesion is 0. In addition, the CHR_Mouse_Liver_1_AnyLesion in [6] (mouse liver) is 6. The compound further yielded a CLZD_CYP3A4_24 in [7] of 5.471. Besides, the CHR_Rat_Liver_1_AnyLesion in data set [8] (chronic study, rat liver) is recorded as 0.
`S=C([S-])NCCNC(=S)[S-].[Zn+2]` [row 207] had an ATG_PXRE_CIS in [1] (HepG2) of 4.387. In [3] (chronic rat study, liver), the CHR_Rat_Liver_3_NeoplasticLesion is given as 0. The compound also returned an NVS_NR_hPXR in [12] of 5.59. This compound yielded a CLZD_CYP1A1_24 in data set [4] of 5.214. This compound also came in with an ATG_PPARg_TRANS in [10] (HepG2) of 4.409. The CHR_Rat_Liver_2_PreneoplasticLesion in data set [5] (chronic rat study, liver) was 0. This compound had a CLZD_CYP1A2_24 in [11] of 5.296. In [8] (chronic rat study, liver), the CHR_Rat_Liver_1_AnyLesion is on record as 0.

(Values after publication PMC3038857, “Using Nuclear Receptor Activity to Stratify Hepatocarcinogens” (PLoS ONE, 2011).)
